Experimental data reported in patent US20200231562A1, “NOVEL MACROLIDE ANTIBIOTICS” (HELMHOLTZ-ZENTRUM FÜR INFEKTIONSFORSCHUNG GMBH, priority 2014, published 2020).
Values after ≈ are worked out from the molar mass of the structure shown. Like-named read-outs stand apart in the source and are kept apart here.

Tests used:
Format in all cases: cell-based
[1] = system: Mycobacterium vaccae IMET 10670; assay: Agar diffusion assay; conditions: Mycolicibacterium vaccae, IMET10670; 50 μL of 0.5 mg in 1 mL methanol per 7 mm hole; n.a. = no activity observed; read-out: diameter of inhibition zone
Description: Antimicrobial activities of the gulmirecins were determined in a primary screen against Bacillus subtilis ATCC 6633, Staphylococcus aureus SG511, Staphylococcus auricularis DSM 20609, Mycobacterium vaccae IMET 10670, Pseudomonas aeruginosa K799/61, Escherichia coli SG458, Sporobolomyces salmonicolor SBUG 549, Candida albicans ATCC14053 and Penicillium notatum JP 36. To this end, holes with 7 mm diameter were aseptically punched in the respective agar medium. Subsequently, the agar plates were inoculated with the test organisms. 0.5 mg of every test compound was dissolved in 1 mL of methanol, and 50 μL of this solution was transferred to a single hole. Ciprofloxacin and amphotericin B served as positive controls. After evaporation of the solvent, the agar plates were incubated depending on the growth conditions of the test organisms. […] The test results are shown in Table 6 below, wherein the given values represent the diameters of the respective inhibition zone in the agar diffusion assay.

[2] = system: Chinese hamster ovary CHO-K1 cells (ACC-110); assay: Cytotoxicity (MTT) assay, antiproliferative activity; conditions: Cricetulus griseus, 120 h, CHO-K1, 5 d incubation
Description: (§1) Half maximal inhibitory concentrations (IC50) in μg/ml of disciformycin A (1) and disciformycin B (2) for inhibiting the proliferative activity of human HCT-116 colon carcinoma cells, mouse fibroblast cells L929, and Chinese hamster ovary CHO-K1 cells were determined. Cells were seeded at 6×10^3 cells per well of 96-well plates (Corning CellBind®) in complete medium (180 μl) and directly treated with disciformycin dissolved in DMSO in serial dilution. The compound was tested in duplicate, as well as the internal solvent control. After 5 d incubation, 5 mg/ml MTT in PBS (20 μL) was added per well and it was further incubated for 2 h at 37° C. The medium was then discarded and cells were washed with PBS (100 μl) before adding 2-propanol/10N HCl (250:1, v/v; 100 μl) in order to dissolve formazan granules. The absorbance at 570 nm was measured using a microplate reader (EL808, Bio-Tek Instruments Inc.). The amount of formazan, i.e. relative absorption, is thereby proportional to the number of actively proliferating cells.

[3] = system: Mouse fibroblast cells L929 (ACC-2); assay: as above; conditions: 120 h, L929, 5 d incubation
Description: as §1

[4] = system: HCT-116 colon carcinoma cells (ACC-581); assay: as above; conditions: Homo sapiens, 120 h, HCT-116, 5 d incubation
Description: as §1

[5] = system: Mycobacterium sp. DSM 43270; assay: MIC by microbroth dilution; conditions: 16 h, 30° C., n.i. = no inhibition up to 67 μg/ml
Description: (§2) Bacterial strains. Bacterial wildtype strains used in susceptibility assays were either part of HZI's strain collection or purchased from the German Collection of Microorgansims and Cell Cultures (Deutsche Sammlung von Mikroorganismen und Zellkulturen, DSMZ).
(§3) Minimum inhibitory concentration (MIC) was determined by microbroth dilution. In brief, overnight cultures of bacteria (EBS medium) were diluted to OD600 0.01. Disciformycin A (1) or B (2) dissolved in DMSO was added directly to the cultures in 96-well plates (Sarstedt, flat bottom) in duplicate and the compound was tested in serial dilution. […] After 16 h incubation at 900 rpm and 30° C. on a microplate shaker (Titramax, Heidolph) absorbance at 600 nm was measured using a microplate reader (POLARstar Omega, BMG Labtech). MIC values were determined by sigmoidal curve fitting.

[6] = system: Staphylococcus aureus DSM 346; assay: MIC by microbroth dilution; conditions: Staphylococcus aureus, DSM346, 16 h, 30° C., n.i. = no inhibition up to 67 μg/ml, read-out: MIC
Description: as §2, §3

[7] = system: Nocardioides simplex DSM 20130; assay: MIC by microbroth dilution; conditions: Pimelobacter simplex, DSM20130, 16 h, 30° C., n.i. = no inhibition up to 67 μg/ml, read-out: MIC
Description: as §2, §3

[8] = system: Staphylococcus aureus Newman; assay: MIC by microbroth dilution; conditions: 16 h, 30° C., n.i. = no inhibition up to 67 μg/ml
Description: as §2, §3

[9] = system: Escherichia coli DSM 1116; assay: MIC by microbroth dilution; conditions: 16 h, 30° C., n.i. = no inhibition up to 67 μg/ml
Description: as §2, §3

[10] = system: Bacillus subtilis DSM 10; assay: MIC by microbroth dilution; conditions: Bacillus subtilis, DSM10, 16 h, 30° C., n.i. = no inhibition up to 67 μg/ml, read-out: MIC
Description: as §2, §3

[11] = system: Mycobacterium diemhoferi DSM 43524; assay: MIC by microbroth dilution; conditions: Mycobacterium, DSM43524, 16 h, 30° C., n.i. = no inhibition up to 67 μg/ml, read-out: MIC
Description: as §2, §3

[12] = system: Staphylococcus aureus N315 (MRSA); assay: MIC by microbroth dilution; conditions: 16 h, 30° C., n.i. = no inhibition up to 67 μg/ml
Description: as §2, §3

[13] = system: Chromobacterium violaceum DSM 30191; assay: MIC by microbroth dilution; conditions: 16 h, 30° C., n.i. = no inhibition up to 67 μg/ml
Description: as §2, §3

[14] = system: Micrococcus luteus DSM 20030; assay: MIC by microbroth dilution; conditions: Micrococcus luteus, DSM20030, 16 h, 30° C., n.i. = no inhibition up to 67 μg/ml, read-out: MIC
Description: as §2, §3

[15] = system: Staphylococcus aureus Mu50 (MRSA/VRSA) ATCC 700699; assay: MIC by microbroth dilution; conditions: 16 h, 30° C., n.i. = no inhibition up to 67 μg/ml
Description: as §2, §3

[16] = system: Pseudomonas aeruginosa DSM 50071; assay: MIC by microbroth dilution; conditions: 16 h, 30° C., n.i. = no inhibition up to 67 μg/ml
Description: as §2, §3

[17] = system: Staphylococcus aureus (MRSA) DSM-11822; assay: MIC by microbroth dilution; conditions: microbroth dilution, 16 h, 30° C., n.i. = no inhibition up to 67 μg/ml
Description: as §2, §3

[18] = system: Paenibacillus polymyxa DSM 36; assay: MIC by microbroth dilution; conditions: Paenibacillus polymyxa, DSM36, 16 h, 30° C., n.i. = no inhibition up to 67 μg/ml, read-out: MIC
Description: as §2, §3

[19] = system: Staphylococcus camosus DSM 20501; assay: MIC by microbroth dilution; conditions: 30° C., n.i. = no inhibition up to 67 μg/ml
Description: as §2, §3

[20] = Staphylococcus aureus, read-out: MIC

`C/C=C(/C)[C@H]1C/C=C(\C)[C@@H](O[C@H]2O[C@H](CO)[C@@H](O)[C@@H]2O)[C@H](OC(=O)CC(C)C)C(=O)C[C@@H](O)[C@H](C)C(=O)O1` [Compound 3, gulmirecin A] gave a zone of inhibition at 25 µg/hole [1] of 17 mm.
Work on `C/C=C(/C)[C@H]1C/C=C(\C)[C@@H](O[C@H]2O[C@H](CO)[C@@H](O)[C@@H]2O)[C@H](OC(=O)CC(C)C)C(=O)C/C=C(/C)C(=O)O1` [Compound 1, disciformycin A] yielded an IC50 [2] of 16.6 µg/mL (≈ 31.6 µM), an IC50 [3] of 29 µg/mL (≈ 55.3 µM) and an IC50 [4] of 13 µg/mL (≈ 24.8 µM). The MIC [5] was “n.i”, the MIC [6] was 16.6 µg/mL (≈ 31.6 µM) and the MIC [7] was 33.3 µg/mL (≈ 63.5 µM). For the same compound, the MIC [8] was 8.0 µg/mL (≈ 15.2 µM), the MIC ([8]; Staphylococcus aureus, NEWMAN, read-out: MIC) was 8 µg/mL (≈ 15.2 µM) and the MIC [9] was “n.i”. It also gave an MIC [10] of 4.2 µg/mL (≈ 8.01 µM), an MIC [11] of 33.3 µg/mL (≈ 63.5 µM) and an MIC [12] of 8.0 µg/mL (≈ 15.2 µM). The MIC ([12]; Staphylococcus aureus, MRSA, read-out: MIC) was 8 µg/mL (≈ 15.2 µM), the MIC [13] was “n.i” and the MIC [14] was 67 µg/mL (≈ 128 µM). The MIC [15] was 2.0 µg/mL (≈ 3.81 µM), the MIC [15, 20] was 2 µg/mL (≈ 3.81 µM) and the MIC [16] was “n.i”. The MIC [17, 20] was 4 µg/mL (≈ 7.62 µM), the MIC [17] was 4.0 µg/mL (≈ 7.62 µM) and the MIC [18] was 16.6 µg/mL (≈ 31.6 µM). The MIC ([19]; 16 h) was 7.8 µg/mL (≈ 14.9 µM) and the MIC ([19]; Staphylococcus, DSM20501, 16 h, read-out: MIC) was 7.8 µg/mL (≈ 14.9 µM).
